The values below come from PMC5218480 (PLoS ONE, 2017).

In the assay the test system is MV-4-11 cells. In words: Gene expression microarray analysis (Affymetrix PrimeView) and GSEA. It is filed as cell-based, human. Also on record: RFU PODN (11730768_x_at) / Fold change /veh PODN (11730768_x_at) / RFU LINC00158 (11744669_a_at) / Fold change /veh LINC00158 (11744669_a_at) / RFU DUSP10 (11751237_a_at) / Fold change /veh DUSP10 (11751237_a_at) / RFU ID3 (11757404_x_at) / Fold change /veh ID3 (11757404_x_at) / RFU PLEKHG5 (11737974_s_at) / Fold change /veh PLEKHG5 (11737974_s_at) / RFU LRRC4B (11730491_at) / Fold change /veh LRRC4B (11730491_at) / RFU GIMAP4 (11747438_a_at) / Fold change /veh GIMAP4 (11747438_a_at) / RFU KRT8 (11758183_x_at) / Fold change /veh KRT8 (11758183_x_at) / RFU CNN1 (11734310_a_at) / Fold change /veh CNN1 (11734310_a_at) / RFU VPS37D (11726825_at) / Fold change /veh VPS37D (11726825_at) / RFU C10orf10 (11716522_x_at) / Fold change /veh C10orf10 (11716522_x_at) / RFU KIR2DL2 /// KIR2DL4 /// KIR2DL5A /// KIR2DL5B /// KIR2DS1 /// KIR2DS2 /// KIR2DS3 /// KIR2DS4 /// KIR3DL3 /// KIR3DL3 /// KIR3DS1 (11738374_at) / Fold change /veh KIR2DL2 /// KIR2DL4 /// KIR2DL5A /// KIR2DL5B /// KIR2DS1 /// KIR2DS2 /// KIR2DS3 /// KIR2DS4 /// KIR3DL3 /// KIR3DL3 /// KIR3DS1 (11738374_at) / RFU C1QL1 (11718748_at) / Fold change /veh C1QL1 (11718748_at) / RFU TMPRSS4 (11747572_a_at) / Fold change /veh TMPRSS4 (11747572_a_at) / RFU HAMP (11756126_x_at) / Fold change /veh HAMP (11756126_x_at) / RFU RNFT2 (11725882_a_at) / Fold change /veh RNFT2 (11725882_a_at) / RFU NR4A2 (11747474_a_at) / Fold change /veh NR4A2 (11747474_a_at) / RFU ABCC12 (11746883_a_at) / Fold change /veh ABCC12 (11746883_a_at) / RFU TMEM136 (11760407_x_at) / Fold change /veh TMEM136 (11760407_x_at) / RFU CLDN22 /// WWC2 (11732394_at) / Fold change /veh CLDN22 /// WWC2 (11732394_at) / RFU HLA-DPB1 (11760878_x_at) / Fold change /veh HLA-DPB1 (11760878_x_at) / RFU SPINT1 (11716480_a_at) / Fold change /veh SPINT1 (11716480_a_at) / RFU GAP43 (11754022_s_at) / Fold change /veh GAP43 (11754022_s_at) / RFU A4GNT (11735810_at) / Fold change /veh A4GNT (11735810_at) / RFU PRB3 (11715151_x_at) / Fold change /veh PRB3 (11715151_x_at) / RFU TUBB4B (11761932_at) / Fold change /veh TUBB4B (11761932_at) / RFU CAPN14 (11732068_a_at) / Fold change /veh CAPN14 (11732068_a_at) / RFU TMCC2 (11721928_a_at) / Fold change /veh TMCC2 (11721928_a_at) / RFU IRGQ (11745062_a_at) / Fold change /veh IRGQ (11745062_a_at) / RFU FAM174B (11720279_a_at) / Fold change /veh FAM174B (11720279_a_at) / RFU TMPRSS4 (11748680_a_at) / Fold change /veh TMPRSS4 (11748680_a_at) / RFU FAM212B (11763350_a_at) / Fold change /veh FAM212B (11763350_a_at) / RFU PLEKHG5 (11743358_a_at) / Fold change /veh PLEKHG5 (11743358_a_at) / RFU ZSCAN30 (11745921_a_at) / Fold change /veh ZSCAN30 (11745921_a_at) / RFU CMKLR1 (11741424_a_at) / Fold change /veh CMKLR1 (11741424_a_at) / RFU LOC101060620 /// MAPK8IP1 (11723275_at) / Fold change /veh LOC101060620 /// MAPK8IP1 (11723275_at) / RFU SPTSSB (11747773_x_at) / Fold change /veh SPTSSB (11747773_x_at) / RFU PRSS12 (11739890_at) / Fold change /veh PRSS12 (11739890_at) / RFU BIN1 (11741810_x_at) / Fold change /veh BIN1 (11741810_x_at) / RFU WNT11 (11732464_a_at) / Fold change /veh WNT11 (11732464_a_at) / RFU C10orf10 (11716521_a_at) / Fold change /veh C10orf10 (11716521_a_at) / RFU C5orf56 (11738089_at) / Fold change /veh C5orf56 (11738089_at) / RFU CYB561 (11721691_x_at) / Fold change /veh CYB561 (11721691_x_at) / RFU ANKRD19P (11752326_a_at) / Fold change /veh ANKRD19P (11752326_a_at) / RFU OR2T12 /// OR2T33 /// OR2T8 (11738714_s_at) / Fold change /veh OR2T12 /// OR2T33 /// OR2T8 (11738714_s_at) / RFU VCAN (11748164_a_at) / Fold change /veh VCAN (11748164_a_at) / RFU JSRP1 (11732532_at) / Fold change /veh JSRP1 (11732532_at) / RFU KRTAP10-11 (11738290_x_at) / Fold change /veh KRTAP10-11 (11738290_x_at) / RFU MYO3A (11730013_a_at) / Fold change /veh MYO3A (11730013_a_at) / RFU EBF3 (11725865_a_at) / Fold change /veh EBF3 (11725865_a_at) / RFU CAMK2N1 (11719241_x_at) / Fold change /veh CAMK2N1 (11719241_x_at) / RFU C5orf56 (11738088_a_at) / Fold change /veh C5orf56 (11738088_a_at) / RFU OLFML3 (11715873_a_at) / Fold change /veh OLFML3 (11715873_a_at) / RFU LOC100653217 /// NTM (11731650_a_at) / Fold change /veh LOC100653217 /// NTM (11731650_a_at) / RFU MAPK11 (11762145_a_at) / Fold change /veh MAPK11 (11762145_a_at) / RFU FIZ1 (11724087_x_at) / Fold change /veh FIZ1 (11724087_x_at) / RFU OASL (11726364_x_at) / Fold change /veh OASL (11726364_x_at) / RFU SOX15 (11748057_x_at) / Fold change /veh SOX15 (11748057_x_at) / RFU CD79A (11719716_a_at) / Fold change /veh CD79A (11719716_a_at) / RFU HIST1H1D (11736915_at) / Fold change /veh HIST1H1D (11736915_at) / RFU CASKIN2 (11723855_a_at) / Fold change /veh CASKIN2 (11723855_a_at) / RFU LOC730098 (11760151_x_at) / Fold change /veh LOC730098 (11760151_x_at) / RFU OR4N2 (11742367_at) / Fold change /veh OR4N2 (11742367_at) / RFU PRRT2 (11749266_a_at) / Fold change /veh PRRT2 (11749266_a_at) / RFU SNX32 (11753110_a_at) / Fold change /veh SNX32 (11753110_a_at) / RFU CDHR5 (11726645_a_at) / Fold change /veh CDHR5 (11726645_a_at) / RFU RCAN1 (11760418_a_at) / Fold change /veh RCAN1 (11760418_a_at) / RFU FAM167A (11723789_a_at) / Fold change /veh FAM167A (11723789_a_at) / RFU FAM26E (11764081_at) / Fold change /veh FAM26E (11764081_at) / RFU ISYNA1 (11749810_s_at) / Fold change /veh ISYNA1 (11749810_s_at) / RFU ACY1 (11761880_at) / Fold change /veh ACY1 (11761880_at) / RFU 11764098_at / Fold change /veh 11764098_at / RFU SAMD14 (11745864_x_at) / Fold change /veh SAMD14 (11745864_x_at) / RFU NPB (11741838_a_at) / Fold change /veh NPB (11741838_a_at) / RFU TMPRSS6 (11731388_a_at) / Fold change /veh TMPRSS6 (11731388_a_at) / RFU KRTAP10-2 (11738614_at) / Fold change /veh KRTAP10-2 (11738614_at) / RFU ARHGAP8 /// PRR5-ARHGAP8 (11727945_x_at) / Fold change /veh ARHGAP8 /// PRR5-ARHGAP8 (11727945_x_at) / RFU KRTAP5-7 /// NADSYN1 (11734609_at) / Fold change /veh KRTAP5-7 /// NADSYN1 (11734609_at) / RFU RASL12 (11751679_a_at) / Fold change /veh RASL12 (11751679_a_at) / RFU CDKN2B (11736163_a_at) / Fold change /veh CDKN2B (11736163_a_at) / RFU PRF1 (11729649_at) / Fold change /veh PRF1 (11729649_at) / RFU, ZNF638 /// ZNF638-IT1 / Fold change vs veh, ZNF638 /// ZNF638-IT1 / RFU, PANK3 / Fold change vs veh, PANK3 / RFU, SH3YL1 / Fold change vs veh, SH3YL1 / RFU, ZEB2 / Fold change vs veh, ZEB2 / RFU, NRIP1 / Fold change vs veh, NRIP1 / RFU, PTTG1IP / Fold change vs veh, PTTG1IP / RFU, CAPN2 / Fold change vs veh, CAPN2 / RFU, MED14 / Fold change vs veh, MED14 / RFU, SNORA58 / Fold change vs veh, SNORA58 / RFU, C1orf63 / Fold change vs veh, C1orf63 / RFU, LRRFIP1 / Fold change vs veh, LRRFIP1 / RFU, NDUFAF7 / Fold change vs veh, NDUFAF7 / RFU, SLC12A2 / Fold change vs veh, SLC12A2 / RFU, IBTK / Fold change vs veh, IBTK / RFU, ESF1 / Fold change vs veh, ESF1 / Fold change vs veh, TMEM50B / RFU, TAOK1 / Fold change vs veh, TAOK1 / RFU, ACBD3 / Fold change vs veh, ACBD3 / RFU, TMA16 / Fold change vs veh, TMA16 / RFU, RWDD3 / Fold change vs veh, RWDD3 / RFU, BCAT1 / Fold change vs veh, BCAT1 / RFU, EDEM3 / Fold change vs veh, EDEM3 / RFU, TMEM33 / Fold change vs veh, TMEM33 / RFU, WDR75 / Fold change vs veh, WDR75 / RFU, AHCTF1 / Fold change vs veh, AHCTF1 / RFU, TFRC / Fold change vs veh, TFRC / RFU, ZDHHC17 / Fold change vs veh, ZDHHC17 / RFU, NOM1 / Fold change vs veh, NOM1 / RFU, ARL8B / Fold change vs veh, ARL8B / RFU, ZBTB11 / Fold change vs veh, ZBTB11 / RFU, TAMM41 / Fold change vs veh, TAMM41 / RFU, KIAA1704 /// LOC100996395 / Fold change vs veh, KIAA1704 /// LOC100996395 / RFU, ING1 / Fold change vs veh, ING1 / RFU, TRMT61B / Fold change vs veh, TRMT61B / RFU, FUBP3 / Fold change vs veh, FUBP3 / RFU, TP53 / Fold change vs veh, TP53 / RFU, TNKS2 / Fold change vs veh, TNKS2 / RFU, ZFP14 / Fold change vs veh, ZFP14 / RFU, ACTR2 / Fold change vs veh, ACTR2 / RFU, PPP3R1 / Fold change vs veh, PPP3R1 / RFU, PIK3R1 / Fold change vs veh, PIK3R1 / RFU, HNRNPA1 / Fold change vs veh, HNRNPA1 / RFU, RNF170 / Fold change vs veh, RNF170 / RFU, ZNF28 / Fold change vs veh, ZNF28 / RFU, RNGTT / Fold change vs veh, RNGTT / RFU, OGT / Fold change vs veh, OGT / RFU, BRD1 / Fold change vs veh, BRD1 / RFU, MARS / Fold change vs veh, MARS / RFU, ZNF655 / Fold change vs veh, ZNF655 / RFU, FAHD1 / Fold change vs veh, FAHD1 / RFU, BDP1 / Fold change vs veh, BDP1 / RFU, LRRCC1 / Fold change vs veh, LRRCC1 / RFU, ARID1A / Fold change vs veh, ARID1A / RFU, ZNF146 / Fold change vs veh, ZNF146 / RFU, ZNF330 / Fold change vs veh, ZNF330 / RFU, GPN3 / Fold change vs veh, GPN3 / RFU, C9orf123 / Fold change vs veh, C9orf123 / RFU, N4BP2L2 / Fold change vs veh, N4BP2L2 / RFU, ARFIP1 / Fold change vs veh, ARFIP1 / RFU, FAM179B / Fold change vs veh, FAM179B / RFU, BCL10 / Fold change vs veh, BCL10 / RFU, UHRF1BP1L / Fold change vs veh, UHRF1BP1L / RFU, BET1 / Fold change vs veh, BET1 / RFU, CNOT2 / Fold change vs veh, CNOT2 / RFU, ZNF268 / Fold change vs veh, ZNF268 / Fold change vs veh, ZNF507 / RFU, DGCR2 / Fold change vs veh, DGCR2 / RFU, WDSUB1 / Fold change vs veh, WDSUB1 / Fold change vs veh, HSP90B1 /// MIR3652 / RFU, ADSS / Fold change vs veh, ADSS / RFU, GK / Fold change vs veh, GK / RFU, ZNF148 / Fold change vs veh, ZNF148 / RFU, TAF9 / Fold change vs veh, TAF9 / RFU, SLC1A5 / Fold change vs veh, SLC1A5 / RFU, SLMO2 / Fold change vs veh, SLMO2 / RFU, ABCC4 / Fold change vs veh, ABCC4 / RFU, LOC101060439 /// RAP1B / Fold change vs veh, LOC101060439 /// RAP1B / RFU, RFX7 / Fold change vs veh, RFX7 / RFU, GTPBP10 / Fold change vs veh, GTPBP10 / RFU, CNEP1R1 / Fold change vs veh, CNEP1R1 / RFU, BIVM-ERCC5 /// ERCC5 / Fold change vs veh, BIVM-ERCC5 /// ERCC5 / RFU, ILF3 / Fold change vs veh, ILF3 / RFU 11762660_at / Fold change /veh 11762660_at / RFU VCAN (11757783_s_at) / Fold change /veh VCAN (11757783_s_at) / RFU DDX43 (11728927_at) / Fold change /veh DDX43 (11728927_at) / RFU KRT8 (11758188_x_at) / Fold change /veh KRT8 (11758188_x_at) / RFU NKD1 (11759106_at) / Fold change /veh NKD1 (11759106_at) / RFU SRD5A1 (11742802_a_at) / Fold change /veh SRD5A1 (11742802_a_at) / RFU TPSAB1 /// TPSB2 (11721975_s_at) / Fold change /veh TPSAB1 /// TPSB2 (11721975_s_at) / RFU GSTM3 (11746129_a_at) / Fold change /veh GSTM3 (11746129_a_at) / RFU IL23R (11737362_x_at) / Fold change /veh IL23R (11737362_x_at) / RFU TMEM51 (11727254_a_at) / Fold change /veh TMEM51 (11727254_a_at) / RFU PIWIL2 (11732686_x_at) / Fold change /veh PIWIL2 (11732686_x_at) / RFU ORM1 (11744905_x_at) / Fold change /veh ORM1 (11744905_x_at) / RFU CCDC152 (11743942_at) / Fold change /veh CCDC152 (11743942_at) / RFU ECM1 (11717891_a_at) / Fold change /veh ECM1 (11717891_a_at) / RFU IL23R (11748794_a_at) / Fold change /veh IL23R (11748794_a_at) / RFU TNFAIP8L3 (11732012_x_at) / Fold change /veh TNFAIP8L3 (11732012_x_at) / RFU MBOAT4 (11741988_at) / Fold change /veh MBOAT4 (11741988_at) / RFU 11764193_at / Fold change /veh 11764193_at / RFU TMEM53 (11763286_at) / Fold change /veh TMEM53 (11763286_at) / RFU MAGEB2 (11727129_at) / Fold change /veh MAGEB2 (11727129_at) / RFU TMEM200A (11744735_a_at) / Fold change /veh TMEM200A (11744735_a_at) / RFU CCDC152 (11751479_a_at) / Fold change /veh CCDC152 (11751479_a_at) / RFU FAM211A (11726209_a_at) / Fold change /veh FAM211A (11726209_a_at) / RFU RGS16 (11746705_a_at) / Fold change /veh RGS16 (11746705_a_at) / RFU VCAN (11755009_s_at) / Fold change /veh VCAN (11755009_s_at) / RFU RHOB (11743442_s_at) / Fold change /veh RHOB (11743442_s_at) / RFU RGS16 (11720943_a_at) / Fold change /veh RGS16 (11720943_a_at) / RFU RGS16 (11720944_at) / Fold change /veh RGS16 (11720944_at) / RFU, VPS4B / Fold change vs veh, VPS4B / RFU, CREB1 / Fold change vs veh, CREB1 / RFU, DNAJC13 / Fold change vs veh, DNAJC13 / RFU, GNAQ / Fold change vs veh, GNAQ / RFU, CDK5R1 / Fold change vs veh, CDK5R1 / RFU, ZRANB3 / Fold change vs veh, ZRANB3 / RFU, CUL4A / Fold change vs veh, CUL4A / RFU, CCNY / Fold change vs veh, CCNY / RFU, UFL1 / Fold change vs veh, UFL1 / RFU, COG3 / Fold change vs veh, COG3 / RFU, DIAPH2 / Fold change vs veh, DIAPH2 / RFU, SKA2 / Fold change vs veh, SKA2 / RFU, AFF3 / Fold change vs veh, AFF3 / RFU, LMF1 / Fold change vs veh, LMF1 / RFU, IPO11 / Fold change vs veh, IPO11 / RFU, DFFB / Fold change vs veh, DFFB / RFU, FOXP1 / Fold change vs veh, FOXP1 / RFU, CARD8 / Fold change vs veh, CARD8 / RFU, STRN3 / Fold change vs veh, STRN3 / RFU, ADK / Fold change vs veh, ADK / RFU, RASSF2 / Fold change vs veh, RASSF2 / RFU, WIPF1 / Fold change vs veh, WIPF1 / RFU, LARP1B / Fold change vs veh, LARP1B / RFU, RASA1 / Fold change vs veh, RASA1 / RFU, RB1 / Fold change vs veh, RB1 / RFU, PPFIA1 / Fold change vs veh, PPFIA1 / RFU, MAT2A / Fold change vs veh, MAT2A / RFU, CCT5 / Fold change vs veh, CCT5 / RFU, WDR92 / Fold change vs veh, WDR92 / RFU, CUX1 / Fold change vs veh, CUX1 / RFU, TTC7A / Fold change vs veh, TTC7A / RFU, TMEM135 / Fold change vs veh, TMEM135 / RFU, DEPTOR / Fold change vs veh, DEPTOR / RFU, CPM / Fold change vs veh, CPM / RFU, DNAJB6 / Fold change vs veh, DNAJB6 / RFU, CACNA2D3 / Fold change vs veh, CACNA2D3 / RFU, DTX4 / Fold change vs veh, DTX4 / RFU, TFCP2 / Fold change vs veh, TFCP2 / RFU, GMCL1 /// GMCL1P1 / Fold change vs veh, GMCL1 /// GMCL1P1 / RFU, AEBP2 / Fold change vs veh, AEBP2 / RFU, SNHG1 /// SNORD22 /// SNORD25 /// SNORD26 /// SNORD27 /// SNORD28 /// SNORD29 /// SNORD31 / Fold change vs veh, SNHG1 /// SNORD22 /// SNORD25 /// SNORD26 /// SNORD27 /// SNORD28 /// SNORD29 /// SNORD31 / Fold change (Aza/veh), C12orf56 (ProbeSet 11735607_a_at) / Fold change (ACY-1035/veh), C12orf56 (ProbeSet 11735607_a_at) / Fold change (Aza/veh), FGFR1OP (ProbeSet 11751329_s_at) / Fold change (ACY-1035/veh), FGFR1OP (ProbeSet 11751329_s_at) / Fold change (Aza/veh), VPS36 (ProbeSet 11739960_a_at) / Fold change (ACY-1035/veh), VPS36 (ProbeSet 11739960_a_at) / RFU SYPL1 (11715823_x_at) / Fold change /veh SYPL1 (11715823_x_at) / RFU IGFBP7 (11715501_s_at) / Fold change /veh IGFBP7 (11715501_s_at) / RFU REEP3 (11722064_at) / Fold change /veh REEP3 (11722064_at) / RFU IGLL1 (11728026_x_at) / Fold change /veh IGLL1 (11728026_x_at): dose or concentration left out as unconfirmed. To be noted: ProbeSet 11734937_a_at; LIST B.

In the case of `Nc1ncn([C@@H]2O[C@H](CO)[C@@H](O)[C@H]2O)c(=O)n1` [azacitidine], the “Fold change vs veh, CNOT2” value worked out at 0.93.
